What was measured:
Type in all cases: biochemical
IKKb = IKKb (Homo sapiens, UniProt O14920); assay: Protein kinase assay ([γ-32P] ATP), IKKb; conditions: read-out: Activity of the protein kinase when treated with compound I-1 (% control)
Method: (§1) In another set of experiments, the activities of the compounds described herein against various protein kinases were determined according to the methods reported in Hastie et al., Nature Protocols, 2006, 1, 968-971.
(§2) Enzyme dilution buffer. This buffer consisted of 50 mM Tris-HCl, pH 7.5, 0.1 mM EGTA, 1 mg ml^−1 bovine serum albumin and 0.1% (vol/vol) 2-mercaptoethanol.
(§3) 10× concentrated assay buffer. An assay buffer of 500 mM Tris-HCl, pH 7.5, 1 mM EGTA, and 100 mM magnesium acetate was used for assay of a wide variety of protein kinases. In some experiments, other cofactors were included (e.g., calcium ions and calmodulin were included for assay of calcium-calmodulindependent protein kinases).
(§4) 1 mM [γ-^32P] ATP. The specific activity of the [γ-^32P] ATP solution was 1×10^5 to 1×10^6 c.p.m. per nmol depending on what was needed to produce an optimal signal/noise ratio. […] To measure the concentration of ATP, a sample of such a stock solution was diluted to 20 μM, and the absorbance of the diluted sample was measured at 259 nm. The absorbance of a 20-μM stock solution of ATP at 259 nm was about 0.31. […] ATP to produce a radioactivity of 1×10^5 to 1×10^6 c.p.m. per nmol. […]
(§5) 13) Measure radioactivity in the samples by Cerenkov counting (e.g., without liquid scintillation fluid) in a liquid scintillation counter using a “^32P program”. […]

CAMKKb = CAMKKb (Homo sapiens, UniProt Q96RR4); assay: Protein kinase assay ([γ-32P] ATP), CAMKKb; conditions: read-out: Activity of the protein kinase when treated with compound I-1 (% control)
Method: as §1, §2, §3, §4, §5

p38b MAPK = p38b MAPK (Homo sapiens, UniProt Q15759); assay: Protein kinase assay ([γ-32P] ATP), p38b MAPK; conditions: read-out: Activity of the protein kinase when treated with compound I-1 (% control)
Method: as §1, §2, §3, §4, §5

MEKK1 = MEKK1 (Homo sapiens, UniProt Q13233); assay: Protein kinase assay ([γ-32P] ATP), MEKK1; conditions: read-out: Activity of the protein kinase when treated with compound I-1 (% control)
Method: as §1, §2, §3, §4, §5

RSK1 = RSK1 (Homo sapiens, UniProt Q15418); assay: Protein kinase assay ([γ-32P] ATP), RSK1; conditions: read-out: Activity of the protein kinase when treated with compound I-1 (% control)
Method: as §1, §2, §3, §4, §5

p38a MAPK = p38a MAPK (Homo sapiens, UniProt Q16539); assay: Protein kinase assay ([γ-32P] ATP), p38a MAPK; conditions: read-out: Activity of the protein kinase when treated with compound I-1 (% control)
Method: as §1, §2, §3, §4, §5

MST3 = MST3 (Homo sapiens, UniProt Q9Y6E0); assay: Protein kinase assay ([γ-32P] ATP), MST3; conditions: read-out: Activity of the protein kinase when treated with compound I-1 (% control)
Method: as §1, §2, §3, §4, §5

IRR = IRR (Homo sapiens, UniProt P14616); assay: Protein kinase assay ([γ-32P] ATP), IRR; conditions: read-out: Activity of the protein kinase when treated with compound I-1 (% control)
Method: as §1, §2, §3, §4, §5

IRAK4 = IRAK4 (Homo sapiens, UniProt Q9NWZ3); assay: Protein kinase assay ([γ-32P] ATP), IRAK4; conditions: read-out: Activity of the protein kinase when treated with compound I-1 (% control)
Method: as §1, §2, §3, §4, §5

BTK = BTK (Homo sapiens, UniProt Q06187); assay: Protein kinase assay ([γ-32P] ATP), BTK; conditions: read-out: Activity of the protein kinase when treated with compound I-1 (% control)
Method: as §1, §2, §3, §4, §5

p38g MAPK = p38g MAPK (Homo sapiens, UniProt P53778); assay: Protein kinase assay ([γ-32P] ATP), p38g MAPK; conditions: read-out: Activity of the protein kinase when treated with compound I-1 (% control)
Method: as §1, §2, §3, §4, §5

MNK2 = MNK2 (Homo sapiens, UniProt Q9HBH9); assay: Protein kinase assay ([γ-32P] ATP), MNK2; conditions: read-out: Activity of the protein kinase when treated with compound I-1 (% control)
Method: as §1, §2, §3, §4, §5

MST4 = MST4 (Homo sapiens, UniProt Q9P289); assay: Protein kinase assay ([γ-32P] ATP), MST4; conditions: read-out: Activity of the protein kinase when treated with compound I-1 (% control)
Method: as §1, §2, §3, §4, §5

MAPKAP-K2 = MAPKAP-K2 (Homo sapiens, UniProt P49137); assay: Protein kinase assay ([γ-32P] ATP), MAPKAP-K2; conditions: read-out: Activity of the protein kinase when treated with compound I-1 (% control)
Method: as §1, §2, §3, §4, §5

ROCK 2 = assay: Protein kinase assay ([γ-32P] ATP), ROCK 2
Method: as §1, §2, §3, §4, §5

IGF-1R = IGF-1R (Homo sapiens, UniProt P08069); assay: Protein kinase assay ([γ-32P] ATP), IGF-1R; conditions: read-out: Activity of the protein kinase when treated with compound I-1 (% control)
Method: as §1, §2, §3, §4, §5

JNK2 = JNK2 (Homo sapiens, UniProt P45984); assay: Protein kinase assay ([γ-32P] ATP), JNK2; conditions: read-out: Activity of the protein kinase when treated with compound I-1 (% control)
Method: as §1, §2, §3, §4, §5

[1] = 0.1 μM of compound I-1, DMSO control = 100%
[2] = 1 μM of compound I-1, DMSO control = 100%

CAMKKb, sequence (Q96RR4 whole entry): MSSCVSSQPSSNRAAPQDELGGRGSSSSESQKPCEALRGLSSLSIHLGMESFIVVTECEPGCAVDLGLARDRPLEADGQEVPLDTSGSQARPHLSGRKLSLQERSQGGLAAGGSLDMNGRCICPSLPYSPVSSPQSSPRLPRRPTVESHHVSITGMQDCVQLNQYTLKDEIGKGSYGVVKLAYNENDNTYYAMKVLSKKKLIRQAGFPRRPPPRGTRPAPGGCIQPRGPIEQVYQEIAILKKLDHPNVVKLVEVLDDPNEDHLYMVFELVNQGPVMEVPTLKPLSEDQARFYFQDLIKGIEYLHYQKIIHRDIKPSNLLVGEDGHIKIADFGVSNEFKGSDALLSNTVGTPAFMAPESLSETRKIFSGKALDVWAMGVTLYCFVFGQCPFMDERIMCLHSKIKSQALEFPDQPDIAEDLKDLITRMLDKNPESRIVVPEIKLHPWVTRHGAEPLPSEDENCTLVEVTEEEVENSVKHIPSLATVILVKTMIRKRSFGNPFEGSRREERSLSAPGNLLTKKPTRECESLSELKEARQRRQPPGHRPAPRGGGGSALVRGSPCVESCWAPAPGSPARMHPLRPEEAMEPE
p38b MAPK, sequence (Q15759 whole entry): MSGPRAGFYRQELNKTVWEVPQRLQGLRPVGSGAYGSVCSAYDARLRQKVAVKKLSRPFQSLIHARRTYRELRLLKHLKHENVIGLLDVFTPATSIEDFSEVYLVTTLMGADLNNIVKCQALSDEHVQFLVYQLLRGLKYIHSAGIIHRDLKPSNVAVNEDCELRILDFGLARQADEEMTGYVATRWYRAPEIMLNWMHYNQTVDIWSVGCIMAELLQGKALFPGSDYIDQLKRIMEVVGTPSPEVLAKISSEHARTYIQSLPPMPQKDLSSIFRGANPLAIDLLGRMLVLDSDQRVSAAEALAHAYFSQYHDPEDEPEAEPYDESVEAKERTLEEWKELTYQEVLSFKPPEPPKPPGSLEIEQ
IKKb, sequence (O14920 whole entry): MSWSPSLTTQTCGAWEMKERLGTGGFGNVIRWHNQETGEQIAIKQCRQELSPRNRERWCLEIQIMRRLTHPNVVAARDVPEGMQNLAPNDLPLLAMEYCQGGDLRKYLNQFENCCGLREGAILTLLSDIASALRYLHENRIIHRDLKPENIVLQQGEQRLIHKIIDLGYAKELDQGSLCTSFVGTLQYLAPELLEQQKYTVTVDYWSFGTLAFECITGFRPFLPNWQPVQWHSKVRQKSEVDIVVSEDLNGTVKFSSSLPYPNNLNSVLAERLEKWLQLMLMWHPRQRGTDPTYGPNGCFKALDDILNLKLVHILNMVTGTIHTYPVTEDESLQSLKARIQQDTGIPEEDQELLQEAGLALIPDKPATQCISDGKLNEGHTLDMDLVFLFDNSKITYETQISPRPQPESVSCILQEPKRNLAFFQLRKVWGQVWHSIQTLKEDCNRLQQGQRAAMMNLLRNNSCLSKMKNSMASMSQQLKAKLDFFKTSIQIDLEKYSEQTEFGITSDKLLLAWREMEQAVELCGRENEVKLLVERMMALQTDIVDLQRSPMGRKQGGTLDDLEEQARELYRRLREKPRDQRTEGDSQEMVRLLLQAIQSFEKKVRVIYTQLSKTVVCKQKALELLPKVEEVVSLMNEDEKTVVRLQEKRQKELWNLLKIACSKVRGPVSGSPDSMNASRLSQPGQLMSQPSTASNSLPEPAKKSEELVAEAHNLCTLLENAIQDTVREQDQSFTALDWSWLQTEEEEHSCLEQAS
MST4, sequence (Q9P289 whole entry): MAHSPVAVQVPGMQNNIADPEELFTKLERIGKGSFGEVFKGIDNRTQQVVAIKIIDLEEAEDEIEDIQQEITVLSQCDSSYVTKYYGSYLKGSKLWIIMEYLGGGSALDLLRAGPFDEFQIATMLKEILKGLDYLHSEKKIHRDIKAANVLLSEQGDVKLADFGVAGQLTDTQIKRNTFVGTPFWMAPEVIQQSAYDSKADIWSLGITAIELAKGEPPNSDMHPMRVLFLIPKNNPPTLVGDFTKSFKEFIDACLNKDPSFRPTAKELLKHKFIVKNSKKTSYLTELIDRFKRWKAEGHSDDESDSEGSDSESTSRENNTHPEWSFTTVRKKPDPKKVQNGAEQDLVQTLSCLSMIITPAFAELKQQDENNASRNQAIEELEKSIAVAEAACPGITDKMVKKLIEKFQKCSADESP
JNK2, sequence (P45984 whole entry): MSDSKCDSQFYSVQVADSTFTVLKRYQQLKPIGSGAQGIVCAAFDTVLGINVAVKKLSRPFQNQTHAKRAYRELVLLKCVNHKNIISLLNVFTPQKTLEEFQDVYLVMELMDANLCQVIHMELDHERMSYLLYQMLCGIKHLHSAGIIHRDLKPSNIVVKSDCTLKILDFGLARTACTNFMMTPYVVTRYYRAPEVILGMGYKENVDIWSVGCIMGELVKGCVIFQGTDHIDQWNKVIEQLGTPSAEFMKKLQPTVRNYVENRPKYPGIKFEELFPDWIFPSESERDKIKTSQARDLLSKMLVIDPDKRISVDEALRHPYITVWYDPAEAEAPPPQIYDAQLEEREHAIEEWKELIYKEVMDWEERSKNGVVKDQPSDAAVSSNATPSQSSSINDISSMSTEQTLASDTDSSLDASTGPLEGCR
p38a MAPK, sequence (Q16539 whole entry): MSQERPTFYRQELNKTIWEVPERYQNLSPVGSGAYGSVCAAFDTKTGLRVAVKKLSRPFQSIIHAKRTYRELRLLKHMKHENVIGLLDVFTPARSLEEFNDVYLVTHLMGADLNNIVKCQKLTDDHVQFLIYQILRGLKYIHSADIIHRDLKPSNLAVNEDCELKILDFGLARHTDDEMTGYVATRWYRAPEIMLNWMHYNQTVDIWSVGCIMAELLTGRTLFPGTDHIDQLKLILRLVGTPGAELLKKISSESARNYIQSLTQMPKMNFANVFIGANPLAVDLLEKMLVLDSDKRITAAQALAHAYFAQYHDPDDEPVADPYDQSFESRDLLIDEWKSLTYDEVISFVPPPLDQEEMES
IGF-1R, sequence (P08069 31-1367): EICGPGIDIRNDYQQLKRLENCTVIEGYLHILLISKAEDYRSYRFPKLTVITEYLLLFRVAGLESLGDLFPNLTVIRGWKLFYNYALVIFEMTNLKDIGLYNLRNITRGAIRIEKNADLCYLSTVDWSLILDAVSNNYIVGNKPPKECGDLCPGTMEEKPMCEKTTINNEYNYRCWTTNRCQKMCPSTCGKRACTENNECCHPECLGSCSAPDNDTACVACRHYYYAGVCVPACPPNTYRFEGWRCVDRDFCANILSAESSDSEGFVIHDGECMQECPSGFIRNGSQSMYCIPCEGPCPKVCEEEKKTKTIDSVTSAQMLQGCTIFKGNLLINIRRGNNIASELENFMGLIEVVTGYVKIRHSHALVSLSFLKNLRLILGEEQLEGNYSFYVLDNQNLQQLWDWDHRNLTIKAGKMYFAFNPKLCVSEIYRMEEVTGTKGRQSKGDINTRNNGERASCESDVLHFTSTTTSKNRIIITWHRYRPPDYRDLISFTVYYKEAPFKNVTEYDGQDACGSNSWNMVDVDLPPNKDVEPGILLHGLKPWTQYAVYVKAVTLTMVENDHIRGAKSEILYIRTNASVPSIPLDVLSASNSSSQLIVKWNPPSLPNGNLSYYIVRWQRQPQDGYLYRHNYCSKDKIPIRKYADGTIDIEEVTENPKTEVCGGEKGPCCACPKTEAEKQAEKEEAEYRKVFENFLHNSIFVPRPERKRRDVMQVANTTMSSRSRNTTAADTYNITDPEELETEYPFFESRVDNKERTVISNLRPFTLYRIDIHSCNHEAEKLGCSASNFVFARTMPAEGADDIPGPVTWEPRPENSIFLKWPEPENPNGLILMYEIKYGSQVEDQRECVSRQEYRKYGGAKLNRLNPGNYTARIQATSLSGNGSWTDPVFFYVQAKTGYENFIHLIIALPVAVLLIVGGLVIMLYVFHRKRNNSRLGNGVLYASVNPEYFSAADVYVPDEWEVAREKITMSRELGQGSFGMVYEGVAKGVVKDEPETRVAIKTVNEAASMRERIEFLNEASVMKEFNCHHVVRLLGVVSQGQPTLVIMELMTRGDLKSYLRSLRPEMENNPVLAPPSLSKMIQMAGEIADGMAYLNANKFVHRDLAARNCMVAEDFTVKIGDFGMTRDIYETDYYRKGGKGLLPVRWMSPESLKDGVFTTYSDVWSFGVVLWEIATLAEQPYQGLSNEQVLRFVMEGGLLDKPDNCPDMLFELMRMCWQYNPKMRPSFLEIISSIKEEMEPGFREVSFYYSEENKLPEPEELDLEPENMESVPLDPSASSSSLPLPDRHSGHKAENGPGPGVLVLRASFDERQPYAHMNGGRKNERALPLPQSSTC
p38g MAPK, sequence (P53778 whole entry): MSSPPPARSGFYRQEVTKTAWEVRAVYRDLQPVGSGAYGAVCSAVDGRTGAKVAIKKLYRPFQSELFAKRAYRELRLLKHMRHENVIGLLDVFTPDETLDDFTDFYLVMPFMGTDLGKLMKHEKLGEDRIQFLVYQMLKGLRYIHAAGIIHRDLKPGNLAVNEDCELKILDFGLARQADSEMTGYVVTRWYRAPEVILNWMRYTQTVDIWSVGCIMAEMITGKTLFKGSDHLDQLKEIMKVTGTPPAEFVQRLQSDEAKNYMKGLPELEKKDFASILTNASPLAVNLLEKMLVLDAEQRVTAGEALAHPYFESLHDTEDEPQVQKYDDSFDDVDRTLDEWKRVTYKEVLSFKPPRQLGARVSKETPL
MAPKAP-K2, sequence (P49137 whole entry): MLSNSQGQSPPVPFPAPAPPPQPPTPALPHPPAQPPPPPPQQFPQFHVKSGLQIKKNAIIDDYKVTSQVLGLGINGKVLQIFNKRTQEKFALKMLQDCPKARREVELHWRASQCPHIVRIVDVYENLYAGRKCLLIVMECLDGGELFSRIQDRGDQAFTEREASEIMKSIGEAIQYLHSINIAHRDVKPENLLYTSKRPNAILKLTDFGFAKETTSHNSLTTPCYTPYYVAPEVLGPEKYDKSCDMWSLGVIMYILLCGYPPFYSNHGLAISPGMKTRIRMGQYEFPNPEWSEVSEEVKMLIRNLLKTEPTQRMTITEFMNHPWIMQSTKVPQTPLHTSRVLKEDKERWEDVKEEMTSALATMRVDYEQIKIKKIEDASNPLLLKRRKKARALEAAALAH

## Cc1cccc(C)c1NC(=O)N1C/C=C\COc2cccc(c2)Nc2cc1ncn2 [Compound I-1]
IKKb; [1]
  remaining activity at 0.1 µM: 103%
IKKb; [2]
  remaining activity at 1 µM: 77%
CAMKKb; [1]
  remaining activity at 0.1 µM: 101%
CAMKKb; [2]
  remaining activity at 1 µM: 88%
p38b MAPK; [1]
  remaining activity at 0.1 µM: 83%
p38b MAPK; [2]
  remaining activity at 1 µM: 29%
MEKK1; [1]
  remaining activity at 0.1 µM: 96%
MEKK1; [2]
  remaining activity at 1 µM: 95%
RSK1; [1]
  remaining activity at 0.1 µM: 98%
RSK1; [2]
  remaining activity at 1 µM: 99%
p38a MAPK; [1]
  remaining activity at 0.1 µM: 79%
p38a MAPK; [2]
  remaining activity at 1 µM: 14%
MST3; [1]
  remaining activity at 0.1 µM: 91%
MST3; [2]
  remaining activity at 1 µM: 87%
IRR; [1]
  remaining activity at 0.1 µM: 98%
IRR; [2]
  remaining activity at 1 µM: 83%
IRAK4; [1]
  remaining activity at 0.1 µM: 92%
IRAK4; [2]
  remaining activity at 1 µM: 86%
BTK; [1]
  remaining activity at 0.1 µM: 46%
BTK; [2]
  remaining activity at 1 µM: 48%
p38g MAPK; [1]
  remaining activity at 0.1 µM: 101%
p38g MAPK; [2]
  remaining activity at 1 µM: 88%
MNK2; [1]
  remaining activity at 0.1 µM: 104%
MNK2; [2]
  remaining activity at 1 µM: 108%
MST4; [1]
  remaining activity at 0.1 µM: 133%
MST4; [2]
  remaining activity at 1 µM: 81%
MAPKAP-K2; [1]
  remaining activity at 0.1 µM: 88%
MAPKAP-K2; [2]
  remaining activity at 1 µM: 84%
ROCK 2; [1]
  Activity of the protein kinase when treated with compound I-1 (% control): 95 % control
ROCK 2; [2]
  Activity of the protein kinase when treated with compound I-1 (% control): 91 % control
IGF-1R; [1]
  remaining activity at 0.1 µM: 109%
IGF-1R; [2]
  remaining activity at 1 µM: 61%
JNK2; [1]
  remaining activity at 0.1 µM: 81%
JNK2; [2]
  remaining activity at 1 µM: 34%
